Experimental data taken from BindingDB's records for doi:10.1038/nchembio.2195 (University of Texas M. D. Anderson Cancer Center, 2016).

Key:
Gamma-enolase = Gamma-enolase (Homo sapiens, UniProt P09104); assay: Enolase Enzymatic Assays; settings: pH 7.4
Description: (§1) Enolase activity was measured by two different methods: a fluorometric NADH-linked assay or adirect spectrophotometric assay via formation of PEP. In the fluorescent assay,enolase activity was measured via NADH oxidation in a pyruvate kinase-dehydrogenase coupled assay. The assay is conducted in 10 mM KCl, 5 mM MgSO4, and 100 mM triethanolamine at pH 7.4, with 400 uM NADH and 2 mM ADP. 2-PGA, pyruvate kinase (PK) and lactate dehydrogenase(LDH) are provided in excess, with conversion of 2-PGA to PEP by enolase being rate limiting. PEP (with ADP) is substrate of PK; pyruvate formed by thisreaction is linked to NADH oxidation by LDH. Enolase activity is determinedby fluorescence measurement of oxidation of NADH by excitation at 340 nmand emission at 460 nm. The substrate concentration was 5 mM 2-PGA unlessotherwise indicated. Fluorescence was measured using an Omega FluorescencePlate Reader (BMG Labtech). Alternatively, enolase activity was measured directly by the appearance of PEP from 2-PGA via absorption at 240 nm. The assay medium was the same, except that all the auxiliary reagents (PK or LDH, NADH and ADP) are omitted. Both assays were conducted in a 96-well plate format, with the direct assay performed in UV-transmissible plates.

Alpha-enolase = Alpha-enolase (Homo sapiens, UniProt P06733); assay: Enolase Enzymatic Assays; settings: pH 7.4
Alpha-enolase, sequence (P06733 whole entry): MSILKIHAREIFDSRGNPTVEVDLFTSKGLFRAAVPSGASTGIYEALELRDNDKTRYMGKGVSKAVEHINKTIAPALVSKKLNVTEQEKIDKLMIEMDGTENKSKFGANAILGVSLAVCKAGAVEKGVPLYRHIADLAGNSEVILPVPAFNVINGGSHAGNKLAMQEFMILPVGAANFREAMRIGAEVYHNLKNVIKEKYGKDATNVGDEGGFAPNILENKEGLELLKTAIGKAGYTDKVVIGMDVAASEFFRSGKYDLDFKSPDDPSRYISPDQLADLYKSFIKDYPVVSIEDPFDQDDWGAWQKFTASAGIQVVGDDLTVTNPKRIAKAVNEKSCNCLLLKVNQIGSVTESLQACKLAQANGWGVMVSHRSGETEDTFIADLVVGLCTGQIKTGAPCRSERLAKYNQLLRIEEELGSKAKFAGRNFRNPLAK
Description: as §1

Gamma-enolase, sequence (P09104 whole entry): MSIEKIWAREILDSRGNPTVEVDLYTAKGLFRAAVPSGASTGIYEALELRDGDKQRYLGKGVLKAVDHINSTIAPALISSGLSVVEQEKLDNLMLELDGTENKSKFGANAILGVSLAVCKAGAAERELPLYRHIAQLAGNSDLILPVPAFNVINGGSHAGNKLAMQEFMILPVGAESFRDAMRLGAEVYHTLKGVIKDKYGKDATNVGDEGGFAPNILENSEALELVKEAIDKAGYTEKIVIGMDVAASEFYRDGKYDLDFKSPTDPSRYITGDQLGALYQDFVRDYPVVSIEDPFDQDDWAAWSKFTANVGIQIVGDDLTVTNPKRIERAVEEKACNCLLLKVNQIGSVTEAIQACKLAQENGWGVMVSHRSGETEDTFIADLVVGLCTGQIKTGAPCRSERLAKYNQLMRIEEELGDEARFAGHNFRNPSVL

| SMILES | IC50 (Gamma-enolase) [nM] | IC50 (Alpha-enolase) [nM] |
| --- | --- | --- |
| O=C1[C@@H](P(=O)(O)O)C[C@H](O)N1O [SF2312] | 42.5 | 37.9 |
| O=C(CP(=O)(O)O)NO [phosphonoacetohydroxamate (PhAH)] | 62.3 | 53.2 |
